Assay results from patent US10718006B2, “Methods for detecting beta-lactamase-producing bacteria” (priority 2015, dated 2020).
Blank lines part the entries; values can stand above or below the compound they belong to.

Tests used:
[1] = test system: E. coli strains ESBL+ (MIAE6690) and ESBL− (K12); assay: Optical density of E. coli strains cultured with cefotaxime; assay type: cell-based
[2] = test system: ESBL+ E. coli strain; assay: ESBL+ E. coli cultured with cefotaxime with or without clavulanate potassium; assay type: cell-based
Description: FIG. 4: Cyclic voltammograms (v=50 mV·s^−1) recorded with a screen-printed sensor for the E. coli strain ESBL^+ cultured in a culture medium containing only 4 μg·mL^−1 of cefotaxime (A) or supplemented with 10 μg·mL^−1 of clavulanate potassium, then centrifuged (1 mL; 7000 g; 10 min) before a step of incubation of the pellet with 50 μL in a 500-μM solution of nitrocefin in PBS for 10 min.
Since the hyperproduced cephalosporinases and the carbapenemases can also hydrolyse cefotaxime, the bacteria producing these enzymes can also give a positive response in the presence of cefotaxime. In order to distinguish the bacteria producing extended-spectrum beta-lactamases and the bacteria producing hyperproduced cephalosporinases and carbapenemases, the bacteria were cultured simultaneously in two culture media, one containing cefotaxime as antibiotic, the other additionally containing clavulanate potassium as inhibitor of ESBLs. After recovering the bacteria, the bacterial pellets were incubated with nitrocefin as substrate.

[3] = Cyclic voltammetry of nitrocefin and its form hydrolyzed by ESBL; assay type: physicochemical; settings: screen-printed carbon electrodes; for peak of irreversible anodic oxidation (a1): PBS pH 7.0
Description: Each sensor consists of the working electrode and a counter-electrode. The working area of the sensor (7.07 mm^2) is delimited with an adhesive ring, which also allows the electrochemical cell to be defined. For carrying out amperometric measurement, the sensor is inserted in a connector (Dropsens) connected to the potentiostat, and then a 20-μL drop of the solution to be analyzed is deposited on the surface of the sensor. After immersing a silver wire coated with a silver chloride precipitate (Ag/AgCl), which constitutes the reference electrode, the measurements are carried out by cyclic voltammetry (v=50 mV·s^−1) at ambient temperature.
5 μL of ESBL solution is put in a polypropylene tube containing 45 μL of 0.5 mM nitrocefin solution in phosphate buffer (PBS; 100 mM; pH=7.0). After a step of incubation for 10 minutes at ambient temperature in the dark, 20 μL of the mixture is taken and transferred onto the surface of the screen-printed carbon sensor. A reference electrode (Ag/AgCl) is then immersed in the 20 μL of solution previously deposited, and the cyclic voltammetry measurements are carried out by proceeding as follows: potential scanning between −0.4 V and 1.2 V at a rate of 50 mV·s^−1.
The oxidation peak appearing at about +0.3 V results from hydrolysis of the beta-lactam ring of nitrocefin and may be selected as the analytical response for identifying beta-lactamases in a sample.
Nitrocefin was hydrolyzed by an extended-spectrum beta-lactamase in an abundant quantity. The voltammetric behaviour of nitrocefin (S) and of its hydrolyzed form (P) was investigated by cyclic voltammetry using screen-printed electrodes based on carbon. Nitrocefin and hydrolyzed nitrocefin both have a peak of irreversible anodic oxidation (a1) at about +1.0 V vs. Ag/AgCl. This peak may be attributed to oxidation of the thiol group in the dihydrothiazine group or to other functions specific to the cephalosporin derivatives. […]

[4] = test system: E. coli strains ESBL+ (MIAE6690) and ESBL− (K12); assay: Voltammetric detection of ESBL-producing E. coli with nitrocefin; assay type: cell-based; settings: pellet incubated 10 min with 500 μM nitrocefin
Description: Then 1 mL of each bacterial suspension is transferred to a polypropylene tube and centrifuged at 7000 g for 10 min. After removing the supernatant, a volume of 50 μL of nitrocefin solution (0.5 mM in PBS) is put in the tube and incubated with the bacterial pellet for 10 min at ambient temperature in the dark. The liquid is then aspirated and transferred onto the screen-printed sensor to carry out the voltammetric measurement as stated in section 1.3.
To evaluate the capacity of the voltammetric method for detecting the ESBL-producing bacteria, two strains of E. coli with a well-characterized genotype were selected, one being a producer of an ESBL (ESBL^+) and the other not producing ESBL (ESBL^−). First the two strains are cultured in LB medium containing 4 μg·mL^−1 of cefotaxime. After the centrifugation step, the respective bacterial pellets of these two strains are incubated with nitrocefin as substrate. […] The culture medium supplemented with cefotaxime and the medium without antibiotic were also subjected to voltammetric measurement. No specific signal is observed in the potential range [0.1-0.6 V vs. Ag/AgCl] for these two media, which confirms that neither the LB culture medium, nor cefotaxime interferes with voltammetric detection.

SMILES: CO/N=C(\C(=O)N[C@@H]1C(=O)N2C(C(=O)O)=C(COC(C)=O)CS[C@H]12)c1csc(N)n1 [cefotaxime]
optical density ([1]; ESBL+ E. coli strain cultured in LB with 4 μg·mL^−1 cefotaxime): 0.934 | optical density ([1]; ESBL− E. coli strain cultured in LB with 4 μg·mL^−1 cefotaxime): 0.002 | E. coli count on selective medium ([2]; culture with cefotaxime without inhibitor): 1.8×10^8 CFU·mL^−1

SMILES: O=C(O)[C@H]1/C(=C/CO)O[C@@H]2CC(=O)N21 [clavulanate potassium]
anodic peak resulting from hydrolysis of nitrocefin ([2]; ESBL+ strain cultured with 4 μg·mL^−1 cefotaxime and 10 μg·mL^−1 clavulanate potassium): no signal was recorded | E. coli count on selective medium ([2]; culture with cefotaxime supplemented with an inhibitor (clavulanate potassium)): 80 CFU·mL^−1

peak of irreversible anodic oxidation (a1) [3]: about +1.0 V vs. Ag/AgCl | peak of irreversible anodic oxidation (a2) ([3]; PBS pH 7.0, nitrocefin hydrolyzed by ESBL): about +0.3 V
SMILES: O=C(Cc1cccs1)NC(C(=O)O)C1NC(C(=O)O)=C(C=Cc2ccc([N+](=O)[O-])cc2[N+](=O)[O-])CS1 (stereo not shown) [hydrolyzed nitrocefin]

peak of irreversible anodic oxidation (a1) [3]: about +1.0 V vs. Ag/AgCl
SMILES: O=C(Cc1cccs1)N[C@@H]1C(=O)N2C(C(=O)O)=C(/C=C/c3ccc([N+](=O)[O-])cc3[N+](=O)[O-])CS[C@H]12 [nitrocefin]
anodic peak associated with hydrolysis of the β-lactam ring of nitrocefin ([4]; ESBL+ E. coli strain): about +0.4 V vs. Ag/AgCl | anodic peak associated with hydrolysis of the β-lactam ring of nitrocefin ([4]; ESBL− E. coli strain): no peak is recorded
